Results taken from US20080261933A1, “COMBINATION OF PROGESTERONE-RECEPTOR ANTAGONIST TOGETHER WITH A LUTEIN-HORMONE-RELEASING HORMONE AGONIST AND ANTAGONIST FOR USE IN BRCA MEDIATED DISEASES” (priority 2007, published 2008).

What was measured:
tumor cells = assay: Apoptosis of tumor cells
Source text: Such other hormone-dependent diseases may include ovarian cancer, endometrial cancer, myeloma, myoma, lung cancer, meningioma, i.e., diseases which substantially originate or are influenced by the presence of hormone receptors and/or hormone-dependent pathways.

progesterone receptor [1] = target: T1, progesterone receptor (Homo sapiens, UniProt P06401); conditions: Fuhrmann et al., J. Med. Chem. 2000; cited from earlier work
T1 sequence (P06401 1-933): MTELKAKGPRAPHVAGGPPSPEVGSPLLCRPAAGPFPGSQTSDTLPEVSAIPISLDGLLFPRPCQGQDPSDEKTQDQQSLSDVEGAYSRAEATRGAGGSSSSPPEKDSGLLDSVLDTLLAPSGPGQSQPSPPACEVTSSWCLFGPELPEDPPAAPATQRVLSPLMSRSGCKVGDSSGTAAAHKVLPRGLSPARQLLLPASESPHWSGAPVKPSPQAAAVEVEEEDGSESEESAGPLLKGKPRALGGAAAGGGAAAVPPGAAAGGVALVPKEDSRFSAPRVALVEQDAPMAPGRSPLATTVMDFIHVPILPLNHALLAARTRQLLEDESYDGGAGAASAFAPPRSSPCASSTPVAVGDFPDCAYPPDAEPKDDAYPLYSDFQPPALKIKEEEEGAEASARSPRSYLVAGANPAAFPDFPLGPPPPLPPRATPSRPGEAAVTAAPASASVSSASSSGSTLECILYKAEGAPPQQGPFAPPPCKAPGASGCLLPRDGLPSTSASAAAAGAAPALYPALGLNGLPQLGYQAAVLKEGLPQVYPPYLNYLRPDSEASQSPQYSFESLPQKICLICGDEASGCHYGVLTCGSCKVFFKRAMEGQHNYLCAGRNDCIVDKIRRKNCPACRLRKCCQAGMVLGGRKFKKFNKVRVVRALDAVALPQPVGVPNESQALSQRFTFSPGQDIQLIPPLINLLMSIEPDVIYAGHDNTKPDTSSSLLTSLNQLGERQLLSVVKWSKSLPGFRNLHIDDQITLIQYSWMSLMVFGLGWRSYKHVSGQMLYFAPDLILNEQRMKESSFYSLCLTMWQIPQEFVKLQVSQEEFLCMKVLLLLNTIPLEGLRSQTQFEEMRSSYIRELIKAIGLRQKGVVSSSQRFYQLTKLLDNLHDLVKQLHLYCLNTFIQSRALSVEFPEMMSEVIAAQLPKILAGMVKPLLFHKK

progesterone receptor [2] = target: T1, progesterone receptor; assay: Endocrinological profile of the progesterone-receptor antagonist
Source text: has high antiprogestagenic activity with little or no other endocrinological effects (Fuhrmann, U. et al., J. Med. Chem. 2000, 43, 5010-5016).

glucocorticoid = conditions: causes severe side effects; cited from earlier work
[3] = test system: mammary tumors in Brca1/p53-deficient mice; conditions: mice with BRCA1- or BRCA2 inactivated in mammary glands; cited from earlier work
[4] = oral; cited from earlier work

SMILES: CC(=O)c1ccc([C@H]2C[C@@]3(C)[C@@H](CC[C@@]3(O)C(F)(F)C(F)(F)F)[C@@H]3CCC4=CC(=O)CCC4=C32)cc1 [ZK230211, 11β-(4-acetylphenyl)-17β-hydroxy-17α-(1,1,2,2,2-pentafluoroethyl)-estra-4,9-dien-3-one]
- apoptosis of tumor cells (tumor cells): increased apoptosis
- antiprogestagenic activity (progesterone receptor [1]): high
- other endocrinological effects (progesterone receptor [1]): little or no
- endocrine side effects such as androgen, estrogen or antiglucocorticoid activity (progesterone receptor [2]): only very weak or no

SMILES: CC#C[C@]1(O)CC[C@H]2[C@@H]3CCC4=CC(=O)CCC4=C3[C@@H](c3ccc(N(C)C)cc3)C[C@@]21C [mifepristone]
- anti-glucocorticoid activity (glucocorticoid): strong
- development of mammary tumors [3]: blocks the development of mammary tumors
- bioavailability when administered orally [4]: poor
